The values that follow come from ChEMBL document CHEMBL5360601, “Discovery of Potent, Dual-Inhibitors of Diacylglycerol Kinases Alpha and Zeta Guided by Phenotypic Optimization” (ACS Med Chem Lett, 2023).

Series [1] deals with Diacylglycerol kinase beta (Homo sapiens, UniProt Q9Y6T7). Kind of series: Inhibition of human DGK beta using 1, 2-Dilauroyl-sn-glycerol as substrate by ADP-Glo assay. For orientation: ADP-Glo first removes unused ATP, then detects ADP through luciferase.
Series [2] deals with Diacylglycerol kinase zeta (Homo sapiens, UniProt Q13574). Kind of series: Inhibition of human DGK zeta using 1, 2-Dilauroyl-sn-glycerol as substrate by ADP-Glo kinase assay.
Series [3] in a line: Induction of proliferation of human CD8-positive T cell measured after 24 hrs by Cell titer glo assay.
Series [4] deals with T1, Diacylglycerol kinase alpha (Homo sapiens, UniProt P23743). The series is described as follows: Inhibition of human DGK alpha using 1, 2-Dilauroyl-sn-glycerol as substrate by ADP-Glo assay.
Series [5] deals with Diacylglycerol kinase iota (Homo sapiens, UniProt O75912). The series is described as follows: Inhibition of human DGK iota using 1, 2-Dilauroyl-sn-glycerol as substrate by ADP-Glo kinase assay.
The nature of series [6]: Inhibition of DGK in human whole blood cell assessed as increase in pERK level incubated for 1 hr followed by anti-human CD3 stimulation and measure after 15 mins by AlphaLISA assay. In kind it is tissue-based. For orientation: Bead proximity is the source of the signal in Alpha formats.
In series [7] the target is T1, Diacylglycerol kinase alpha. Kind of series: Inhibition of DGK alpha (unknown origin).
Series [8] addresses Diacylglycerol kinase gamma (Homo sapiens, UniProt P49619). Kind of series: Inhibition of human DGK gamma using 1, 2-Dilauroyl-sn-glycerol as substrate by ADP-Glo assay.
Series [9] in a line: AUClast in C57BL6 mouse at 1 mg/kg, iv administered as bolus dose measured upto 72 hrs by LC/MS/MS analysis. The note with it: in vivo. In kind it is ADME, organism-based. Details: dose 1 mg/kg, time < 72 hrs, route iv.
The nature of series [10]: Volume of distribution at steady state in C57BL6 mouse at 1 mg/kg, iv administered as bolus dose measured upto 72 hrs by LC/MS/MS analysis. In kind it is ADME, organism-based. Particulars: in vivo, read-out: Vdss.
A short description of series [11]: Half life in C57BL6 mouse at 1 mg/kg, iv administered as bolus dose measured upto 72 hrs by LC/MS/MS analysis. In kind it is ADME, organism-based. The note with it: in vivo.
Series [12] can be described thus: Tmax in C57BL6 mouse at 5 mg/kg, po administered as bolus dose measured upto 72 hrs by LC/MS/MS analysis. In kind it is ADME, organism-based. The note with it: in vivo.
Series [13] is described as follows: Clearance in C57BL6 mouse at 1 mg/kg, iv administered as bolus dose measured upto 72 hrs by LC/MS/MS analysis. In kind it is ADME, organism-based. Particulars: in vivo.
Series [14] is described as follows: Inhibition of DGK in human whole blood cell assessed as increase in IFNgamma level incubated for 1 hr followed by anti-human CD3/ antiCD28 mAB stimulation and measure after 24 hrs by AlphaLISA assay. In kind it is tissue-based.
A short description of series [15]: Oral bioavailability in C57BL6 mouse at 5 mg/kg administered as bolus dose measured upto 72 hrs by LC/MS/MS analysis. In kind it is ADME, organism-based. Particulars: in vivo.
Series [16] can be described thus: Metabolic stability in human liver microsomes assessed as parent compound remaining. In kind it is ADME, Microsome. A general note: Liver microsomes are a subcellular fraction often used to study metabolism.
The nature of series [17]: AUClast in C57BL6 mouse at 5 mg/kg, po administered as bolus dose measured upto 72 hrs by LC/MS/MS analysis. In kind it is ADME, organism-based. Set-up: dose 5 mg/kg, time < 72 hrs, route po. Particulars: in vivo.
Series [18] is described as follows: Metabolic stability in mouse liver microsomes assessed as parent compound remaining. In kind it is ADME, Microsome.
Series [19] can be described thus: Cmax in C57BL6 mouse at 5 mg/kg, po administered as bolus dose measured upto 72 hrs by LC/MS/MS analysis. In kind it is ADME, organism-based. Set-up: dose 5 mg/kg, time < 72 hrs, route po. The note with it: in vivo.
Series [20] concerns Raji. The series is described as follows: IL2 production in PD-L1 negative human Raji cells measured after 24 hrs by Cell titer glo assay.
Series [21] relates to Mus musculus. Kind of series: Immunostimulatory activity in OT-1 mouse model assessed as increase in activated effector T-cells at 10 mg/kg measured after 24 hrs by flow cytometry analysis. In kind it is functional, organism-based.
Series [22] can be described thus: Inhibition of DGK in mouse T cell assessed as increase in IFNgamma level incubated for 1 hr by AlphaLISA assay. In kind it is cell-based.
The target in series [23] is T2, Diacylglycerol kinase kappa (Homo sapiens, UniProt Q5KSL6).
T2 sequence (Q5KSL6 whole entry): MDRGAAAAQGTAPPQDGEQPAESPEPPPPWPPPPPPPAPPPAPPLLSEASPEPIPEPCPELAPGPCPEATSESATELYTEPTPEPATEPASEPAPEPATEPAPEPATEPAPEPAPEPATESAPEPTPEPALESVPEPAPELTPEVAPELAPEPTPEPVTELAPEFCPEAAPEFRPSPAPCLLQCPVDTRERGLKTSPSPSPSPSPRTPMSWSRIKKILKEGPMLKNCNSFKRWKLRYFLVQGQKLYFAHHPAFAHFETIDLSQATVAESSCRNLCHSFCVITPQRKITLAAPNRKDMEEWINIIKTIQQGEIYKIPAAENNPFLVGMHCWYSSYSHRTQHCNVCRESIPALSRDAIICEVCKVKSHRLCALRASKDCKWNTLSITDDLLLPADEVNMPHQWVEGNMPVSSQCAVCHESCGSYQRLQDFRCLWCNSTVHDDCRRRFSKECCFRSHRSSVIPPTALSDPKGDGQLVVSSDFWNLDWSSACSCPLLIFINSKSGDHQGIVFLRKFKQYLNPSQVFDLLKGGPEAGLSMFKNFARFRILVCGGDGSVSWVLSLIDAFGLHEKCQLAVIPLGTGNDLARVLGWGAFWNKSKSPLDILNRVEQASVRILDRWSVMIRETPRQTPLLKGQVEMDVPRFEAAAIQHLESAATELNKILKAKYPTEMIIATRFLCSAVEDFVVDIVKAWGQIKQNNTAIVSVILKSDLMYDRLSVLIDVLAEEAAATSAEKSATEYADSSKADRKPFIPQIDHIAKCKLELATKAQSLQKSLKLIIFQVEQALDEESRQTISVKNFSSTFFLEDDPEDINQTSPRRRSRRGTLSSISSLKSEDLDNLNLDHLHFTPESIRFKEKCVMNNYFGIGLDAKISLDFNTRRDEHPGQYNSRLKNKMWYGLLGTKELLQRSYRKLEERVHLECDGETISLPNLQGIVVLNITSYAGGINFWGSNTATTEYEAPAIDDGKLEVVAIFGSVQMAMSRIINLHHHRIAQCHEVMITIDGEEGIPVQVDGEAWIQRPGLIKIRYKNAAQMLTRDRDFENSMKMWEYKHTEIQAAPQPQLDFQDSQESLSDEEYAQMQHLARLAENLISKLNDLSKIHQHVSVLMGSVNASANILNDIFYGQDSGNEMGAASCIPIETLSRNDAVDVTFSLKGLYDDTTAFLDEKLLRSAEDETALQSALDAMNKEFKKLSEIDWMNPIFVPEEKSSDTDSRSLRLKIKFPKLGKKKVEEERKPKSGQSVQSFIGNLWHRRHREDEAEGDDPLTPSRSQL
The series is described as follows: Inhibition of human DGK kappa using 1, 2-Dilauroyl-sn-glycerol as substrate by ADP-Glo kinase assay.

For series [24], the species on record is Mus musculus. The series is described as follows: Immunostimulatory activity in OT-1 mouse model assessed as increase in activated effector T-cells measured after 24 hrs in presence of SIINFEKL antigen by flow cytometry analysis. In kind it is functional, organism-based. The note with it: dose 1-10 mg/kg.
The test system of series [25] is Raji. Kind of series: IL2 production in PD-L1 positive human Raji cells measured after 24 hrs by Cell titer glo assay.

Calls of active or inactive are those of the source. No cut-off for these calls is given here.

T1 sequence (P23743 whole entry): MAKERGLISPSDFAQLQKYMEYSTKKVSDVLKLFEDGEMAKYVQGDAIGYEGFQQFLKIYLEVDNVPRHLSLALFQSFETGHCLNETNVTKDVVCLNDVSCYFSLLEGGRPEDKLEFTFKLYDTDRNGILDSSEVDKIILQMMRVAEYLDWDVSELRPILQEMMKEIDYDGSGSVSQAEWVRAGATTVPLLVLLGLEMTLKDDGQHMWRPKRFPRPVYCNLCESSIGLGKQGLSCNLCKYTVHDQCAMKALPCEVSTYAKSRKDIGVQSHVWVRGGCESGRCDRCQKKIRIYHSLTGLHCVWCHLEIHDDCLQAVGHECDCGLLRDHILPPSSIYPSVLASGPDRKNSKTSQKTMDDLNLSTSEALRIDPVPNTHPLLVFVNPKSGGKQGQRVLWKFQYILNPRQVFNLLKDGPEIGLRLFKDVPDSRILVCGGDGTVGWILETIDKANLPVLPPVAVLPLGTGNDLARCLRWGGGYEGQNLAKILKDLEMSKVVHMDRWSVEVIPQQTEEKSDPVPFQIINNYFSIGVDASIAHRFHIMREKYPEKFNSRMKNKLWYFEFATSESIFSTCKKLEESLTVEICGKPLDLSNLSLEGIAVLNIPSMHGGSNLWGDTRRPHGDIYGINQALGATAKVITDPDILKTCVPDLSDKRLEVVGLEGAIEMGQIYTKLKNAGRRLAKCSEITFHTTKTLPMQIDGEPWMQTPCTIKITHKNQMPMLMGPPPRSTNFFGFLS
Sequence of Diacylglycerol kinase iota (O75912 whole entry): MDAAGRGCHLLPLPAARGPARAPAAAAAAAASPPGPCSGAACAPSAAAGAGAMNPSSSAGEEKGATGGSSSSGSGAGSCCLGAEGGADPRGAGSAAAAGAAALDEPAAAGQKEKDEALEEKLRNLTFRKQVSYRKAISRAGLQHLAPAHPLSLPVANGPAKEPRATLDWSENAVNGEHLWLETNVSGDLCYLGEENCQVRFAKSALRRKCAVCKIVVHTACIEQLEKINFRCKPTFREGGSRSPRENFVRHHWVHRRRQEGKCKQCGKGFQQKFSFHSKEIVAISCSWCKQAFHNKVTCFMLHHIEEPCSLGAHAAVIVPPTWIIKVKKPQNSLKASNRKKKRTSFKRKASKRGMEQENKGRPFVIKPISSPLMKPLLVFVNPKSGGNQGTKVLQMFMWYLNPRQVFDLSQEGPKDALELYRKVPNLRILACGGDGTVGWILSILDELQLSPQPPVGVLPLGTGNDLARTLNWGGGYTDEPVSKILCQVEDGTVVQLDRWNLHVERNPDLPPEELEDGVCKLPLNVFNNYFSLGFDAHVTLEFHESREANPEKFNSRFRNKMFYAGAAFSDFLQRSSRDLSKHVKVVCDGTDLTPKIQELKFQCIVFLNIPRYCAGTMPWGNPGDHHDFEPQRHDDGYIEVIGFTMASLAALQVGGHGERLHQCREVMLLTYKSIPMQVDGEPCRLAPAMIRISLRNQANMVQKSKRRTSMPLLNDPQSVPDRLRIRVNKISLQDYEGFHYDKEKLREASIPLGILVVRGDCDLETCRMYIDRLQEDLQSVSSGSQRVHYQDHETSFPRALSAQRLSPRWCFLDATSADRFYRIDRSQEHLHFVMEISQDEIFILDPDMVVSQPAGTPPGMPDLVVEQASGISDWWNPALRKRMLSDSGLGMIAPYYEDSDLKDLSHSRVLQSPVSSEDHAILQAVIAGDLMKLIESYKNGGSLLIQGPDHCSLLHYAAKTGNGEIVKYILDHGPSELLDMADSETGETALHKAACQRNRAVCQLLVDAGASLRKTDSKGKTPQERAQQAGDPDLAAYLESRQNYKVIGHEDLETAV
Sequence of Diacylglycerol kinase gamma (P49619 whole entry): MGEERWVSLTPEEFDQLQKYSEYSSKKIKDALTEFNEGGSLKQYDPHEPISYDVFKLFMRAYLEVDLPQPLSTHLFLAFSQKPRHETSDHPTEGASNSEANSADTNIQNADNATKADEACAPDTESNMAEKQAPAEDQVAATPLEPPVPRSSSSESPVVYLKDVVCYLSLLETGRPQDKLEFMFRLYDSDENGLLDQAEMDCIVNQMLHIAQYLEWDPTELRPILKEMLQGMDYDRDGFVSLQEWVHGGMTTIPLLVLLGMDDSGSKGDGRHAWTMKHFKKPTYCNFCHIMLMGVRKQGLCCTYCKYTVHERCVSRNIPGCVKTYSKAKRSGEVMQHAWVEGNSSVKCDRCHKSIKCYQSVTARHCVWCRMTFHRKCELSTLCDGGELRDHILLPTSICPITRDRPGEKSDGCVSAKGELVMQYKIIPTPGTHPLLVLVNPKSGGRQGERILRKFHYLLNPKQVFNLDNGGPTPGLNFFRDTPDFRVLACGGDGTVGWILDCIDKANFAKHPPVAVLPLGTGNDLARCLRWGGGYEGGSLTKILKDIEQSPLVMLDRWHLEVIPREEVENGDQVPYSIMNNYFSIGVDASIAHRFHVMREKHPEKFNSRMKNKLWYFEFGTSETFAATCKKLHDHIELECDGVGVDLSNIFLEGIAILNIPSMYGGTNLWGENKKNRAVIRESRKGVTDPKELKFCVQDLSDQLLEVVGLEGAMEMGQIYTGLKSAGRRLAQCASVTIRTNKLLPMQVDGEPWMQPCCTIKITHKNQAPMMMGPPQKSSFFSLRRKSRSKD
Sequence of Diacylglycerol kinase zeta (Q13574 whole entry): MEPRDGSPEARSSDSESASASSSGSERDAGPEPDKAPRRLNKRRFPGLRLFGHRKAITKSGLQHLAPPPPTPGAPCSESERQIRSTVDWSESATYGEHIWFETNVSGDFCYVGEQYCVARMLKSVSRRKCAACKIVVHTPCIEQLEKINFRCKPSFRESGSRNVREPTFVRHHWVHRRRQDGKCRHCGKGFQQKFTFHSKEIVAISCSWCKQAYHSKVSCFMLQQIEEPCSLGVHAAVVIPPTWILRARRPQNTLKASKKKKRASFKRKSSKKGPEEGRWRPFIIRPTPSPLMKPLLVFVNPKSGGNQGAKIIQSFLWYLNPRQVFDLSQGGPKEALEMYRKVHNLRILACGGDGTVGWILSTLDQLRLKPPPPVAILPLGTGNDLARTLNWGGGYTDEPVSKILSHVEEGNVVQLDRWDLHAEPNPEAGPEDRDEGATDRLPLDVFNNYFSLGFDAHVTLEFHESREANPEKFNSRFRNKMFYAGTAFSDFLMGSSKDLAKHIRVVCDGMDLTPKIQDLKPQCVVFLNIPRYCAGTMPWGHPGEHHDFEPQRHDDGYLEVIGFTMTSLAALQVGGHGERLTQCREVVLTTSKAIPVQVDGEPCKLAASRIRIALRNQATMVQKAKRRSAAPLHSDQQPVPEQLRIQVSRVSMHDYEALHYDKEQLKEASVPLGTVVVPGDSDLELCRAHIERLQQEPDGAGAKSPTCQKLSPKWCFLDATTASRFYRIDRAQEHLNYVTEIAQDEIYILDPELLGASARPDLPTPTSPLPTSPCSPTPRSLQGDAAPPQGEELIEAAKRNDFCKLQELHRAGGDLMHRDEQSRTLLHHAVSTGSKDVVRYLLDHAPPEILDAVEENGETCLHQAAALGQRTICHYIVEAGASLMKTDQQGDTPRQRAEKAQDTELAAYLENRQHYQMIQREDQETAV

A word on the IC50: it is the point on the concentration scale where inhibition reaches its midpoint. A high value points to weaker potency in that assay. As a reminder, the EC50 is the concentration that produces a half-maximal response. Consider `Cc1nc2sccn2c(=O)c1CCN1CCC(=C(c2ccc(F)cc2)c2ccc(F)cc2)CC1` [RITANSERIN], for which the IC50 is more than 10 µM in [1]; more than 10 µM in [2]; more than 5 µM in series [4]; more than 10 µM in series [5]; 15.1 µM in [7]; more than 10 µM in series [8]. The results for the EC50 in [3] and in series [6] were more than 10 µM and more than 20 µM, respectively.

Usually AUC(0-t) stands for the area under the concentration-time curve up to a stated or last time point. A lower AUC(0-t) goes with less exposure. Broadly, the half-life is how long it takes for the measured level to halve. Higher therefore signals slow decline. For orientation: Tmax means the time from dosing to the highest level. For orientation: clearance means the volume of plasma or blood freed of the substance per unit of time. One may read the bioavailability as the share of a dose that reaches the circulation, judged against a reference dose that is usually intravenous. A high value points to much systemic uptake. By Cmax is commonly meant the maximum level reached in the sampled fluid or tissue. For `Cn1c(=O)c([N+](=O)[O-])c(N2CCN(C(c3ccc(F)cc3)c3ccc(F)cc3)CC2)c2nc(C#N)ccc21`, the half-maximal inhibitory concentration (IC50) in [1] came out at 1 µM; in series [2], 0.002 µM; in [4] it was 0.005 µM; in series [5], 0.003 µM; in series [23], 4.6 µM; in series [8] it was 0.68 µM. The AUC(0-t) at 72 h in series [9] stood at 14.8 µM·h; in series [17] it was 48 µM·h. In addition, in series [10], the Vd is 3.9 L/kg. Also, in series [11], the half-life was 22.5 h. For the same molecule, the Tmax in series [12] was determined as 3 h. In series [13], this molecule had a clearance of 0.114 L/h/kg. Also, the EC50 in [3] is 0.065 µM; in [14] it was 0.28 µM; in the series with Raji [20] it was 0.037 µM; in series [6] it was 0.52 µM; in [22] it was 0.34 µM; with Raji [25], 0.037 µM. The molecule also displayed a bioavailability in series [15] of 65%. In addition, the Stability stood at 90% in series [16] and 99% in series [18]. In series [19], this molecule returned a maximum concentration (Cmax) of 1.08 µM. In addition, the result in the series with Mus musculus [21] was inactive. The Activity entry in the series listed under Mus musculus [24] is “Dose-Dependent Effect”.
